In PMC7721897, “Metabolism and pharmacokinetics of a novel polyphenol fatty acid ester phloridzin docosahexaenoate in Balb/c female mice” (Scientific Reports, 2020):
Like-named read-outs stand apart in the source and are kept apart here.

How the values were obtained:
[1] = test system: mammary carcinoma cells and mammary epithelial cells; assay: Cellular uptake assay, all cell lines together; format: cell-based, human and mouse; conditions: 72 h, 20 μM
Procedure: Figure 1 Conjugation of PZ with DHA increases the cellular uptake and stability of PZ and DHA. The cells were treated with 20 μM of PZ, DHA or PZ-DHA and cultured for 72 h at 37 °C. Cells were harvested and washed thoroughly using cold PBS. Cells were lysed in cold acetone containing 0.05 mg/mL quercetin, and cell lysates were collected by centrifugation and analyzed by using UPLC-ESI-MS/MS. (A) mean % cellular uptake of PZ, DHA and PZ-DHA. (B) fold increase in intracellular PZ and DHA when conjugated. ANOVA multiple means statistical comparison method was performed and differences among means were compared using Tukey’s test; *p < 0.05. (MDA-MB-231 p = 0.008; MDA-MB-468 p = 0.01; 4T1 p = 0.02; MCF-7 p = 0.01; MCF-10A p = 0.0005).
Cells were seeded at a density of 3 × 10^5 cells (MDA-MB-231, MDA-MB-468, MCF-7, and MCF-10A) or 1 × 10^5 cells (4T1) /T-75 flask. The cells were cultured overnight to promote cell adhesion. Adherent cells were treated with a sub-cytotoxic concentration (20 μM) of PZ, DHA or PZ-DHA and cultured for 72 h at 37 °C. The supernatant was carefully removed, and cell monolayers were washed with cold PBS. Cells were harvested using TrypLE Express and washed thoroughly with cold PBS. The cell pellet was resuspended in 3 mL of cold acetone containing 0.05 mg/mL quercetin as the internal standard, and incubated overnight at 4 °C. Cell lysates were collected by centrifugation at 14,000×g for 15 min at 4 °C and samples were concentrated by evaporating acetone under a stream of nitrogen gas. Dry pellets were reconstituted in methanol and filtered. The sample was analyzed using a UPLC/ESI/MS system. The percentage cell uptake of the total dose was quantified using standard curves of PZ (R^2 = 0.99), DHA (R^2 = 0.98) or PZ-DHA (R^2 = 0.99) made in methanol.
PZ-DHA and/or PZ-DHA metabolites in malignant/non-malignant epithelial cell lysates, in vitro microsome enzyme reaction mixtures, and mouse serum aliquots were determined using UPLC-ESI–MS/MS instrument (Waters Limited, Mississauga, ON, Canada). All mass spectroscopic analyses were performed using mass scan (full-scan, identification of unknowns) and single ion monitoring (SIM; quantification of PZ, DHA, PZ-DHA, and quercetin) modes of a Waters H-class UPLC separations module coupled with a Micromass Quattro micro API MS/MS system and MassLynx V4.0 control software. An Allure biphenyl column (100 mm × 2.1 mm, 1.8 μm, Restek Pure Chromatography, Bellefonte, PA, USA) and a flow rate of 0.3 mL/min were employed. ESI- mode with a capillary voltage of 3000 V and a nebulizer gas (N2) temperature of 375 °C were used. A volume of 2 µL sample was injected.

[2] = Serum pharmacokinetics after intraperitoneal injection; format: in vivo, Balb/c female mice; conditions: 100 mg/kg intraperitoneal; for Cmax: read-out: Maximum serum concentration (Cmax)
Procedure: Figure 4 Intraperitoneal administration of PZ-DHA results in absorption into the systemic circulation of Balb/c female mice. PZ-DHA (100 mg/kg) was administered by intraperitoneal injection to Balb/c female mice. Blood collection was performed and serum was separated. PZ-DHA was identified and quantified using a calibration curve (R^2 = 0.99) generated using a standard series of PZ-DHA concentrations made in mouse serum. PZ-DHA concentration was plotted against time. The elimination rate of PZ-DHA was determined using a semi-log curve of PZ-DHA concentration vs. time curve.
Pharmacokinetic parameters and in vivo generation of PZ-DHA metabolites were studied using Balb/c female mice. Mice were randomly divided into six groups (n = 4/group) and PZ-DHA (100 mg/kg) was administered by intraperitoneal injection. For each mouse, a single blood collection was performed by cardiac puncture at one of six different time points (t = 15, 30, 60, 90, 120, and 240 min). At the end of blood collection, mice were euthanized by cervical dislocation and organs (liver, lungs, kidneys, spleen, and brain) were harvested. Blood samples were allowed to clot by leaving undisturbed at room temperature for 1 h, and serum was separated by centrifuging at 2000×g for 10 min at 4 °C. The serum was carefully removed and stored on ice until further processing. Serum proteins were precipitated by incubating an aliquot of serum with a mixture of acetonitrile:acetone (80:20) containing 0.1 mg/mL quercetin (internal standard) at 4 °C overnight. The supernatant was separated by centrifuging at 14,000×g for 10 min at 4 °C. Excess solvent was evaporated using nitrogen flush and mixed with methanol and filtered. PZ-DHA-metabolites in the filtrate were identified using a UPLC-ESI–MS/MS (Waters Limited, Mississauga, ON, Canada). Organs were homogenized in PBS (1:5 w/v). Supernatants were collected by centrifugation at 14,000 × g for 15 min at 4 °C. Proteins were precipitated by incubating in acetonitrile:acetone (80:20) containing 0.1 mg/mL quercetin (internal standard) at 4 °C overnight. Supernatants were treated as explained above, and PZ-DHA and/or PZ-DHA-metabolites were identified.
A calibration curve (R^2 = 0.99) generated using a standard series of PZ-DHA concentrations prepared in mouse serum (spiked with 0.1 mg/mL quercetin) was used for the quantification of PZ-DHA. The average PZ-DHA concentrations were plotted against time. The maximum serum concentration of serum (Cmax) and the time to reach Cmax (Tmax) were read directly from the graph. The linear trapezoidal method was used to calculate the area under the curve (AUC) from t = 0 to infinity, the biological half-life of PZ-DHA (t1/2), determined using the plotted curve in Graphpad Prism software (version 5; La Jolla, CA, USA). The clearance following IP administration was determined by non-compartmental analysis using the relationship CL/F = D/AUC. The elimination rate constant λ was determined by linear regression of the elimination phase of the semi-log transformed concentration versus time curve. The t1/2 was calculated using the formula 0.693/λ and the volume of distribution Vd/F from the formula Vd/F = CL/(F*λ).

[3] = parameters: method as in PMID 31473253; conditions: 100 mg/kg body weight via intraperitoneal injections; cited from earlier work
4T1 breast cancer cells = test system: 4T1 breast cancer cells; parameters: method as in PMID 31473253; conditions: intraperitoneal, 100 mg/kg every 2 days for 10 days; cited from earlier work
[4] = test system: mammary carcinoma cells, including MDA-MB-231 and 4T1; parameters: method as in PMID 31473253; conditions: 20 µM for PZ-DHA; cited from earlier work

Compound: CC/C=C\C/C=C\C/C=C\C/C=C\C/C=C\C/C=C\CCC(=O)OC[C@H]1O[C@@H](Oc2cc(O)cc(O)c2C(=O)CCc2ccc(O)cc2)[C@H](O)[C@@H](O)[C@@H]1O [PZ-DHA, phloridzin docosahexaenoate]
- abundance in cells throughout the experimental period [1]: stable abundance
- cellular uptake (as a % of the dose), in words ([1]; all cell lines): significantly higher than that of PZ or DHA
- Clearance (CL/F) [2]: 1.37 mL/min
- Volume of distribution (Vd/F) [2]: 56.5 mL
- Biological half-life (T1/2) ([2]; serum): 28.7 min
- Cmax ([2]; serum): 23.4 µM
- serum detectability at the last measured time ([2]; 240 min): remained detectable
- Tmax ([2]; female, Balb/c, mouse, ip, serum, read-out: Time to reach maximum serum concentration (Tmax) (converted)): 60 min
- half-life ([2]; female, Balb/c, mouse, serum, ip, 100 mg/kg, serum, read-out: Biological half-life (T1/2)): 28 min
- Cmax ([2]; female, Balb/c, mouse, serum, ip, 100 mg/kg, serum): 23.7 µM
- Vd/F ([2]; female, Balb/c, mouse, serum, ip, 100 mg/kg, read-out: Volume of distribution (Vd/F)): 0.057 L
- AUC ([2]; female, Balb/c, mouse, serum, ip, t = 0 to infinity, read-out: The area under the curve (AUC) (converted)): 36.6 µM·h
- k el ([2]; female, Balb/c, mouse, serum, ip, read-out: Elimination rate (λz) (converted)): 0.0004 s⁻¹
- concentration at 15 min ([2]; female, Balb/c, mouse, serum, ip, 15 min, read-out: serum concentration at the 1st measured time point): 0.9 ± 0.4 µM
- liver or kidney toxicity [3]: does not show liver or kidney toxicity
- tumor growth and metastasis of 4T1 breast cancer cells (4T1 breast cancer cells): inhibits tumor growth and metastasis
- migration and invasion of mammary carcinoma cells [4]: significantly inhibits
